Several values for one entry are separate records, joined by “and”; a condition that tells them apart may be missing. Equal entries are not always repeated. Where two headings read alike, the source gives them in different places.
Assays:
Experiment in all cases: greenhouse post-emergence herbicidal test
[1] = test system: ERICA; assay type: in vivo, Conyza canadensis; set-up: key to herbicidal activity against ERICA found: rating on a scale from 0 to 100; conditions: post emergence
How it was run: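 Combination activity judged against additive expectation by Colby, E=X+Y−(X·Y/100), from 0–100 damage ratings taken 20 days post-spray. Plants at 1–15 cm in loamy sand (69.9% sand) were sprayed with components formulated as 10% w/w emulsion concentrate in water.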

[2] = test system: LOLMU; assay type: in vivo, Lolium multiflorum
Experimental: (§1) The culture containers used were plastic pots containing medium loamy sand with approximately 4.6% of humus and 69.9% sand as substrate. The seeds of the test plants were sown separately for each species.
(§2) For the post-emergence treatment, the test plants were grown to a plant height of from 1 to 15 cm, depending on the plant habit, and only then treated with the active compounds which had been suspended or emulsified in water. To this end, the test plants were either sown directly, and grown in the same containers, or they were first grown separately as seedlings and transplanted into the test containers a few days prior to treatment.
(§3) Depending on the species, the plants were kept at 10-25° C. and 20-35° C., respectively.
(§4) The test period extended over 1 to 3 weeks. During this time, the plants were tended and their response to the individual treatments was evaluated 20 days after treatment except mentioned otherwise.
Evaluation was carried out using a scale from 0 to 100. 100 means no emergence of the plants, or complete destruction of at least the above-ground parts, and 0 means no damage or normal course of growth.
The respective stated components A and B, and, if appropriate, C, were formulated as a 10% by weight strength emulsion concentrate and, with addition of the amount of solvent system, introduced into the spray liquor used for applying the active compound. In the examples, the solvent used was water.
In the examples below, using the method of S. R. Colby (1967) “Calculating synergistic and antagonistic responses of herbicide combinations”, Weeds 15, p. 22 ff., the value E, which is expected if the activity of the individual active compounds is only additive, was calculated. E=X+Y−(X·Y/100)

[3] = test system: POLPE; assay type: in vivo, Persicaria maculosa; set-up: key: scale 0 to 100
How it was run: (§5)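 Post-emergence greenhouse test: plants in loamy sand, sprayed at 1–15 cm height with aqueous spray liquor from 10% emulsion concentrates, kept at 10-25 °C or 20-35 °C by species. Damage scored 0–100 (100 = complete destruction), usually 20 days after treatment. Expected additive effect E from Colby: E=X+Y−(X·Y/100).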

[4] = test system: SETVI; assay type: in vivo, Setaria viridis; conditions: a.i. g/ha: I.1 20.8, B.192 62.5, 20 days after treatment
Experimental: as §1, §2, §3, §4
Evaluation was carried out using a scale from 0 to 100. […]
In the examples below, using the method of S. R. Colby (1967) “Calculating synergistic and antagonistic responses of herbicide combinations”, Weeds 15, p. 22 ff., the value E, which is expected if the activity of the individual active compounds is only additive, was calculated. […]

[5] = test system: IPOHE; assay type: in vivo, Ipomoea hederacea; set-up: key to herbicidal activity against IPOHE found: rating on a scale from 0 to 100; conditions: post emergence; for pest or weed control at 31.25 g/ha: 31.25 g/ha a.i.
How it was run: as §5

[6] = I.1 31.25 g/ha, B.103 15 g/ha a.i.
[7] = I.1 62.5 g/ha, B.89 25 g/ha a.i.
[8] = 6 days after treatment, g/ha a.i.: I.1 31.25, B.96 35, mixture 31.25+35

`O=C(O)c1cc(C2CC2)nc2onc(C3CC3)c12` [I.1] showed a pest or weed control at 31.25 g/ha ([1]; Erigeron canadensis, post-emergence, 480 h, I.1 alone 31.25 g/ha a.i., read-out: herbicidal activity against ERICA found) of 70%, a pest or weed control at 62.5 g/ha ([1]; Erigeron canadensis, post-emergence, 480 h, I.1 alone 62.5 g/ha a.i., read-out: herbicidal activity against ERICA found) of 75% and a pest or weed control at 125 g/ha ([1]; Erigeron canadensis, post-emergence, 480 h, I.1 alone 125 g/ha a.i., read-out: herbicidal activity against ERICA found) of 75%. For the same compound, the pest or weed control at 31.25 g/ha ([1]; Erigeron canadensis, post-emergence, 480 h, I.1 31.25 g/ha a.i., read-out: herbicidal activity against ERICA found) was 50%, the pest or weed control at 62.5 g/ha ([1]; Erigeron canadensis, post-emergence, 480 h, I.1 62.5 g/ha a.i., read-out: herbicidal activity against ERICA found) was 70% and the pest or weed control at 125 g/ha ([1]; Erigeron canadensis, post-emergence, 480 h, I.1 125 g/ha a.i., read-out: herbicidal activity against ERICA found) was 65%. For the same compound, the pest or weed control at 15.62 g/ha ([1]; Erigeron canadensis, post-emergence, 480 h, single active, 15.62 g/ha a.i., read-out: herbicidal activity against ERICA found) was 0%, the “herbicidal activity against ERICA found” value ([1]; 6 days after treatment, g/ha a.i.: I.1 125, naptalam 50, mixture 125+50) was 70 and the “herbicidal activity against ERICA found” value ([1]; I.1 15.62 g/ha, B.95 1 g/ha a.i.) was 0. For the same compound, the “herbicidal activity against ERICA found” value ([1]; I.1 15.62 g/ha, B.95 2 g/ha a.i.) was 0, the “herbicidal activity against ERICA found” value [1, 6] was 0 and the “herbicidal activity against ERICA found” value ([1]; I.1 31.25 g/ha, B.95 1 g/ha a.i.) was 0. The “herbicidal activity against ERICA found” value ([1]; I.1 31.25 g/ha, B.95 2 g/ha a.i.) was 0, the “herbicidal activity against ERICA found” value ([1]; I.1 62.5 g/ha, B.103 7.5 g/ha a.i.) was 0 and the “herbicidal activity against ERICA found” value ([1]; I.1 62.5 g/ha, B.103 15 g/ha a.i.) was 0. For the same compound, the “herbicidal activity against ERICA found” value ([1]; I.1 62.5 g/ha, B.57 2 g/ha a.i.) was 10, the “herbicidal activity against ERICA found” value [1, 7] was 10 and the “herbicidal activity against ERICA found” value ([1]; I.1 62.5 g/ha, B.95 1 g/ha a.i.) was 10. The “herbicidal activity against ERICA found” value ([1]; I.1 62.5 g/ha, B.95 2 g/ha a.i.) was 10, the “herbicidal activity against ERICA found” value ([1]; a.i. g/ha: I.1 31.25, B.92 0.5, 20 days after treatment) was 25% and the “herbicidal activity against ERICA found” value ([1]; a.i. g/ha: I.1 62.5, B.191 225, 20 days after treatment) was 90%. For the same compound, the “herbicidal activity against ERICA found” value ([1]; a.i. g/ha: I.1 62.5, B.69 25, 20 days after treatment) was 90%, the “herbicidal activity against ERICA found” value ([1]; a.i. g/ha: I.1 62.5, B.80 250, 20 days after treatment) was 65% and the “herbicidal activity against ERICA found” value ([1]; application rate a.i.: I.1 20.8 g/ha, B.107 (topramezone) 6 g/ha, alone or as mixture (composition 1.107)) was 65. The “herbicidal activity against ERICA found” value ([1]; application rate a.i.: I.1 31.25 g/ha, B.100 (isoxaflutole) 12.5 g/ha, alone or as mixture (composition 1.100)) was 25, the “herbicidal activity against ERICA found” value ([1]; application rate a.i.: I.1 31.25 g/ha, B.84 (paraquat-dichloride) 17.5 g/ha, alone or as mixture (composition 1.84)) was 55 and the “herbicidal activity against ERICA found” value ([1]; application rate a.i.: I.1 62.5 g/ha, B.100 (isoxaflutole) 12.5 g/ha, alone or as mixture (composition 1.100)) was 75. The “herbicidal activity against ERICA found” value ([1]; application rate a.i.: I.1 62.5 g/ha, B.107 (topramezone) 6 g/ha, alone or as mixture (composition 1.107)) was 65, the “herbicidal activity against ERICA found” value ([1]; applied alone at 62.5 g/ha a.i.) was 75 and the “herbicidal activity against ERICA found” value ([1]; applied alone at 125 g/ha a.i.) was 75 and 65. The “herbicidal activity against ERICA found” value ([1]; g/ha a.i.: I.1 31.25, B.52 2.5, mixture 31.25+2.5) was 0, the “herbicidal activity against ERICA found” value ([1]; g/ha a.i.: I.1 31.25, B.52 5, mixture 31.25+5) was 0 and the “herbicidal activity against ERICA found” value ([1]; g/ha a.i.: I.1 62.5, B.52 2.5, mixture 62.5+2.5) was 35. For the same compound, the “herbicidal activity against ERICA found” value ([1]; g/ha a.i.: I.1 62.5, B.52 5, mixture 62.5+5) was 35, the “herbicidal activity against LOLMU found” value ([2]; a.i. g/ha: I.1 7.8, B.67 125, 20 days after treatment) was 0% and the “herbicidal activity against LOLMU found” value ([2]; a.i. g/ha: I.1 15.6, B.67 125, 20 days after treatment) was 0%. The “herbicidal activity against LOLMU found” value ([2]; a.i. g/ha: I.1 31.25, B.67 125, 20 days after treatment) was 0%, the “herbicidal activity against LOLMU found” value ([2]; a.i. g/ha: I.1 62.5, B.67 62.5, 20 days after treatment) was 40% and the “herbicidal activity against LOLMU found” value ([2]; a.i. g/ha: I.1 62.5, B.67 125, 20 days after treatment) was 20%. For the same compound, the “herbicidal activity against LOLMU found” value ([2]; a.i. g/ha: I.1 62.5, B.77 75, 20 days after treatment) was 20%, the “herbicidal activity against POLPE found” value ([3]; 31.25 g/ha a.i.) was 45 and 70 and the “herbicidal activity against POLPE found” value [3, 8] was 10. For the same compound, the “herbicidal activity against POLPE found” value ([3]; application rate a.i.: I.1 31.25 g/ha, B.139 (pyroxasulfone) 12.5 g/ha, alone or as mixture (composition 1.139)) was 30, the “herbicidal activity against SETVI found” value [4] was 25% and the pest or weed control at 31.25 g/ha ([5]; Ipomoea hederacea, post-emergence, 480 h, read-out: herbicidal activity against IPOHE found) was 75%. The pest or weed control at 62.5 g/ha ([5]; Ipomoea hederacea, post-emergence, 480 h, 62.5 g/ha a.i., read-out: herbicidal activity against IPOHE found) was 90%, the pest or weed control at 31.25 g/ha ([5]; Ipomoea hederacea, post-emergence, 480 h, single active, read-out: herbicidal activity against IPOHE found) was 55% and the pest or weed control at 125 g/ha ([5]; Ipomoea hederacea, post-emergence, 480 h, single active, 125 g/ha a.i., read-out: herbicidal activity against IPOHE found) was 95%. For the same compound, the “herbicidal activity against IPOHE found” value [5, 8] was 70, the “herbicidal activity against IPOHE found” value ([5]; 6 days after treatment, g/ha a.i.: I.1 31.25, B.96 70, mixture 31.25+70) was 70 and the “herbicidal activity against IPOHE found” value ([5]; 6 days after treatment, g/ha a.i.: I.1 31.25, B.96 140, mixture 31.25+140) was 70. For the same compound, the “herbicidal activity against IPOHE found” value ([5]; 6 days after treatment, g/ha a.i.: I.1 62.5, B.96 140, mixture 62.5+140) was 80, the “herbicidal activity against IPOHE found” value ([5]; I.1 15.6 g/ha, B.103 7.5 g/ha a.i.) was 20 and the “herbicidal activity against IPOHE found” value ([5]; I.1 15.62 g/ha, B.89 25 g/ha a.i.) was 25. The “herbicidal activity against IPOHE found” value [5, 6] was 70, the “herbicidal activity against IPOHE found” value ([5]; I.1 31.25 g/ha, B.89 25 g/ha a.i.) was 25 and the “herbicidal activity against IPOHE found” value ([5]; I.1 62.5 g/ha, B.57 1 g/ha a.i.) was 30. The “herbicidal activity against IPOHE found” value ([5]; I.1 62.5 g/ha, B.89 12.5 g/ha a.i.) was 30, the “herbicidal activity against IPOHE found” value [5, 7] was 30 and the “herbicidal activity against IPOHE found” value ([5]; a.i. g/ha: I.1 15.6, B.190 62.5, 20 days after treatment) was 50%. For the same compound, the “herbicidal activity against IPOHE found” value ([5]; a.i. g/ha: I.1 31.25, B.190 62.5, 20 days after treatment) was 65%, the “herbicidal activity against IPOHE found” value ([5]; application rate a.i.: I.1 62.5 g/ha, B.40 (imazethapyr) 7.5 g/ha, alone or as mixture (composition 1.40)) was 95 and the “herbicidal activity against IPOHE found” value ([5]; g/ha a.i.: I.1 31.25, B.20 2, mixture 31.25+2) was 25. The “herbicidal activity against IPOHE found” value ([5]; g/ha a.i.: I.1 31.25, B.24 1, mixture 31.25+1) was 25.
